In patent US20150290265A1, “COMPOSITION FOR TREATING METABOLIC DISORDERS” (PIRAMAL ENTERPRISES LIMITED, priority 2012, published 2015):

Legend:
[1] = High fat diet (HFD) induced body weight gain study in mice; assay type: in vivo, C57BL/6J mice; details: Mean ± S.E.M.
Protocol: Male C57BL/6J mice (in-house; Central Animal Facility, Piramal Healthcare Limited, Goregaon, Mumbai, Maharashtra, India) were acclimatized with HFD (60% Kcal, D12492, Research Diets, USA) for two weeks. […] Orlistat (Biocon, India) was used as the standard drug and was administered orally at a dose of 15 mg/kg body weight, twice daily. A separate group of ten mice was fed a low fat diet (LFD, 10% kcal, D12450B, Research Diet, USA) as a normal control. Vehicle was administered to the HFD and LFD control groups at dose of 10 mL/kg body weight. The treatments were continued for a period of sixty days. Body weight and feed intake were monitored daily. The % change in body weight (% increase in body weight from day 1) and the cumulative feed intake data was calculated. On day sixtyone, blood samples (˜200 μL/mice) were collected in heparinised (50 IU/mL) micro-centrifuge tubes under isoflurane anesthesia. Plasma was separated by centrifugation at 10000 rpm at 4° C. for estimation of various plasma biochemistry parameters. The biochemistry analysis was performed on BS-400 autoanalyzer (Mindray, China). […] All the data was analyzed for statistical significance by one-way ANOVA followed by Dunnet's post-hoc test and values of P<0.05 were considered as significant. […]

[2] = target: T1, SCD-1 enzyme (Rattus norvegicus, UniProt P07308); test: SCD-1 inhibition assay (rat liver microsomes, 3H2O release); assay type: biochemical; details: 50 μg/mL
T1 construct: Male Sprague-Dawley rats (150-175 g) were fasted for two days and then fed on low fat diet for three days to induce SCD-1 activity; from tissue; host or cells: liver microsomes of male Sprague-Dawley rats
T1 sequence (P07308 1-358): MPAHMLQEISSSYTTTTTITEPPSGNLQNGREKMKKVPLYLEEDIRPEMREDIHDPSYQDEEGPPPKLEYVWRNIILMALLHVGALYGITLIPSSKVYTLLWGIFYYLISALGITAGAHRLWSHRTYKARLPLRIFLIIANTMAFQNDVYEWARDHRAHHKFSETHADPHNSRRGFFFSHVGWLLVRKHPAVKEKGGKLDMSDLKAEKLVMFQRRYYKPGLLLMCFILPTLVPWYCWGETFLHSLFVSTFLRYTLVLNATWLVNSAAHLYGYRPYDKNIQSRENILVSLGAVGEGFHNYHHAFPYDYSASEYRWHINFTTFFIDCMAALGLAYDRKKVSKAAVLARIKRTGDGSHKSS
Protocol: The assay was carried out according to the method described in reference, European Journal of Pharmacology, 618, 28-36, 2009, the disclosure of which is incorporated by reference for the teaching of the assay.
The SCD-1 enzyme was prepared from rat liver microsomes as described in PCT Publication Application WO2008/074835A1, the disclosure of which is incorporated herein by reference for the teaching of the assay.
Male Sprague-Dawley rats (150-175 g) were fasted for two days and then fed on low fat diet for three days to induce SCD-1 activity. The rats were then sacrificed and their livers were removed and placed on ice. The livers were finely chopped with scissors and then homogenized using a Polytron homogenizer in a homogenization buffer (150 mM KCl, 250 mM sucrose, 50 mM tris-HCl, pH 7.5, 5 mM EDTA, and 1.5 mM reduced glutathione) at 4° C. The homogenate was centrifuged at 1500×g for 20 min at 4° C. […]
The microsomes (62.5 μg) were treated with the test sample for 15 min. […] The filtrate containing ^3H2O was transferred to scintillation vials containing 4 mL of scintillation fluid and the cpm counts were measured using a liquid scintillation counter. The % inhibition was calculated with reference to the vehicle control.
The dose response was determined at concentrations of 25 μg/mL, 50 μg/mL and 100 μg/mL by serially diluting stock solutions of Extract of Example 2.

[3] = target: T2, human DGAT-1 enzyme (Homo sapiens, UniProt O75907); test: hDGAT-1 inhibition assay (microsomes from Sf9 cells, [14C]oleoyl-CoA incorporation); assay type: biochemical; details: 50 μg/mL
T2 construct: host or cells: Sf9 insect cells (baculovirus, Bac-to-Bac); microsomal fraction
T2 sequence (O75907 1-488): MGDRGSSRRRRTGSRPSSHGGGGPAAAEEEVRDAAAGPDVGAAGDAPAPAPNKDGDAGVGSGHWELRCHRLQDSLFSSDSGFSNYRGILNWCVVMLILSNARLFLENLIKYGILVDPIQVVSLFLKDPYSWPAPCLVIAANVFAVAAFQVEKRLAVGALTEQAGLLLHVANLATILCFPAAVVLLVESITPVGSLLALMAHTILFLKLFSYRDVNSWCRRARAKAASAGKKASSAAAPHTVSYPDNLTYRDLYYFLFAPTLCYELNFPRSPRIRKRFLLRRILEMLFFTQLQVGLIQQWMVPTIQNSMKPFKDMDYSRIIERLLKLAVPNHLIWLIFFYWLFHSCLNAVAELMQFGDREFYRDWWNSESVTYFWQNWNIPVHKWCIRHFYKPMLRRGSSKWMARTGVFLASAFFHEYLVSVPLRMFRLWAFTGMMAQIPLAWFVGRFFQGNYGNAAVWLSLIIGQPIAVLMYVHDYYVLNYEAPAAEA
Protocol: The DGAT-1 assay was designed using human DGAT-1 enzyme over expressed in Sf9 cell-line as described in the reference, European Journal of Pharmacology, 650, 663-672, 2011, the disclosure of which is incorporated by reference for the teaching of the assay.
Enzyme was diluted to a working concentration of 1 mg/mL in hDGAT-1 assay buffer, 2.5 μL of the working enzyme stock was used in hDGAT-1 assay (final concentration 25 μg/mL).
The test samples were prepared as follows. […] The working stock was prepared in hDGAT-1 assay buffer. 10 μL of working stock was added into 100 μL of assay mixture to obtain the final concentration of extracts at 50 μg/mL.
60 μL of substrate mix (as described above) was added to a total assay volume of 100 μL. The reaction was started by adding 2.5 μg hDGAT-1 containing microsomal protein and was incubated at 37° C. for 10 min. The reaction was stopped by adding 300 μL of alkaline ethanol stop solution mix (AESSM). […] 250 μL of the upper heptane was added into 4 mL of scintillation fluid and measured using a liquid scintillation counter (Packard; 1600CA) as disintegration per min (dpm) counts. The percentage inhibition was calculated with respect to the vehicle.

Row | Structure (SMILES) | Body weight (g, day 0) ([1]; day 0 (baseline)) [g] | Body weight (g, day 60) ([1]; day 60, Extract 500 mg/kg orally once daily, Orlistat 15 mg/kg orally twice daily) [g] | activity in the SCD-1 inhibition assay (conclusion) [2] | inhibition at 50 µg/mL ([2]; Table 3) [%] | activity in the hDGAT-1 inhibition assay (conclusion) [3] | inhibition at 50 µg/mL ([3]; Table 1) [%]
1 | CCCCCCCCCCC[C@@H](C[C@@H]1OC(=O)[C@H]1CCCCCC)OC(=O)[C@H](CC(C)C)NC=O [Orlistat] | 26.4 ± 0.4 | 30.9 ± 0.9 | – | – | – | –
2 | C[C@@H]1O[C@@H](Oc2cc3c(=O)oc4c(O)c(O)cc5c(=O)oc(c2O)c3c45)[C@H](O)[C@H](O)[C@H]1O [The compound 1, Ellagic acid, 4-O-alpha-L-rhamnopyranoside] | – | – | active | 74.2 | active | 85
